Laboratory results published in PMC12302426, “Dihydrokoumine, a dual-target analgesic with reduced side effects isolated from a traditional Chinese medicine” (Journal of Advanced Research, 2024).

What was measured:
[1] = test system: C57BL/6 male mice; assay: Hot-plate assay (acute pain); type: in vivo; details: morphine 5 mg/kg i.p.
Experimental: The hot-plate test in mice was conducted following previously established method. Six-week-old C57BL/6 male mice were used in hot-plate assay (n = 6). Hot-plate response latency (55°C) after drug treatment was used to measure antinociceptive effect, where response was defined by the animal either by licking paws, flicking paws or jumping. Mice were exposed to the hot plate (Ugo Basile model 7280, Comerio, Italy) for a maximum of 20 s to avoid tissue damage. After three days’ baseline measure, mice were injected intraperitoneally (5 mL/kg) with the solvent mixture, morphine (5 mg/kg) or DK (20, 40 mg/kg) and latency was tested 0.5-, 1-, 2-, 3- and 4- hours post-administration. Evaluation of MOR agonistic and M3R antagonistic activity of DK, naloxone (2 mg/kg) and oxotremorine (0.4 mg/kg) were first injected intraperitoneally, immediately followed by the injection of morphine (5 mg/kg, evaluation of MOR) or DK (20 mg/kg).

[2] = target: T1, M3R (Homo sapiens, UniProt P20309); assay: Radioligand binding assay, [3H] NMS; details: [3H] NMS 0.2 nM
T1 construct: expressed in transfected cells; host or cells: HEK293 cell membranes
Experimental: Radioligand binding assays were conducted using MicroBeta2 (PerkinElmer, USA). Membrane protein preparations MOR and M3R were each prepared at a concentration of 2.5 µg/well. The radio ligands [^3H] DAMGO (specific for MOR) and [^3H]-NMS (specific for M3R) were prepared at concentrations of 0.5 nM and 0.2 nM, respectively. […] For each well, 1 µL of the serially diluted test compounds was transferred, followed by the addition of 100 µL of membrane stock solution and 100 µL of radioligand. The plates were sealed and shaken at 300 rpm at room temperature for one hour. Upon completion of the binding assay, the contents of each well were filtered through Unifilter-96 GF/C filter plates (PerkinElmer, USA). The filter plates were dried for one hour at 50°C and sealed. The trapped ^3H (tritium) on the filters was then quantified using the MicroBeta2. The percentage of inhibition or binding was subsequently calculated.

T1 sequence (P20309 whole entry): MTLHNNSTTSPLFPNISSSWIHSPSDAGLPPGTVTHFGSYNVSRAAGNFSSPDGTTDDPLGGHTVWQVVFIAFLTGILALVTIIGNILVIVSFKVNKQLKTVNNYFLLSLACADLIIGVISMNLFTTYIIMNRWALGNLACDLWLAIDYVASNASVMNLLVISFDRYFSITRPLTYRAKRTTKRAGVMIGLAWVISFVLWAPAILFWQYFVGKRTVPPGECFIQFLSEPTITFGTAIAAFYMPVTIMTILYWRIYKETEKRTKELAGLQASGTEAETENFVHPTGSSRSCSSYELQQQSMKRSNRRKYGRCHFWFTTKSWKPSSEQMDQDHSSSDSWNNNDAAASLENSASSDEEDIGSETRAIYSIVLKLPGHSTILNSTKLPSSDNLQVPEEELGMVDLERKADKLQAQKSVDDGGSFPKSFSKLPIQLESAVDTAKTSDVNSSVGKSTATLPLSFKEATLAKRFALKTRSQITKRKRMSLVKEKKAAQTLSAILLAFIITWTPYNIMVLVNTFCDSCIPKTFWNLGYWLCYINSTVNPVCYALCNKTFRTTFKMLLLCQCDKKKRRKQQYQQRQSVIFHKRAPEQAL

| Structure (SMILES) | time course of antinociception [1] | efficacy (maximal inhibition of radioligand binding) [2] [%] |
| --- | --- | --- |
| CN1CC[C@]23c4c5ccc(O)c4O[C@H]2[C@@H](O)C=C[C@H]3[C@H]1C5 [morphine, reference compound] | largely reduced after one hour and even disappeared at 3 h | – |
| CN1[C@@H]2C[C@@H](OC(=O)[C@H](CO)c3ccccc3)C[C@H]1[C@@H]1O[C@@H]12 [scopolamine, reference compound] | – | 100 |
